Assay results taken from patent US5573772A, “Methods for protecting tissues and organs from ischemic damage” (priority 1994, dated 1996).

Columns and labels:
heart = conditions: cited from earlier work
isolated rabbit hearts = assay: Hemodynamic effects in non-ischemic, unpaced isolated rabbit hearts, Example 4; conditions: APNEA 500 nM
Experimental: In an additional group of 3 hearts that were not made ischemic, 500 nM APNEA was infused for 1 minute. This group of hearts was not paced to control heart rate, and the effects of APNEA on spontaneous heart rate and coronary flow were measured to determine the hemodynamic effects of APNEA.

[1] = test system: A3 adenosine receptor (R226); conditions: cited from earlier work
intact rabbit = assay: Bradycardia and mean arterial pressure in the anesthetized rabbit, Example 2; conditions: DPCPX 0.5 mg/kg IV
[2] = test system: intact, blood perfused rabbit heart; assay: Infarct size in the intact anesthetized rabbit, 30 min ischemia and reperfusion, Example 2
Experimental: In this study, the effect of the adenosine receptor agonist, I-APNEA, on infarct size in the anesthetized rabbit was compared to the protection observed with ischemic preconditioning (PC).
New Zealand White rabbits (1.5-2.5 kg) were anaesthetized with pentobarbital sodium (40 mg/kg) administered via a catheter in a marginal ear vein. The animals were intubated with a pediatric cuffed endotracheal tube and ventilated with room air using a positive pressure respirator (Harvard Apparatus, Natick, Mass.). The heart was exposed in situ via an incision between the left 4th and 5th ribs, and a branch of the left coronary artery was isolated, using a 3-0 silk suture on RB-taper needle, for later ligation to induce 30 minutes of ischemia followed by 180 minutes of reperfusion. A catheter inserted into a femoral vein was used for administration of fluids and drugs. Infarct size was measured using the method described in the section entitled "Measurement of Infarct Size and Risk Area" in Example 1.
All animals received 30 minutes of regional ischemia, induced by tightening the suture placed around the coronary artery. Following the 30 minutes of ischemia, the suture was loosened, and reperfusion was allowed for the ensuing 180 minutes. Control animals received only the 30 minutes of ischemia and 180 minutes of reperfusion (n=9). Ischemic preconditioning (PC) was induced by 5 minutes of occlusion of the coronary artery followed by 10 minutes of reperfusion before the 30 minutes of occlusion (n=7). In a separate group of rabbits, I-APNEA was delivered intravenously as a slow bolus injection (0.25 mg/kg), beginning 15 minutes prior to the 30 minutes occlusion (n=8). In two additional groups of rabbits, the effects of the A1-selective adenosine receptor blocker, DPCPX, were tested against the effects of PC (n=6) and I-APNEA (n=8). […] At the end of 120 minutes of reperfusion, all animals were killed by an overdose of pentobarbital, and risk area and infarct size were measured.

Nc1ncnc2c1ncn2[C@@H]1O[C@H](CO)[C@@H](O)[C@H]1O [ADO, Adenosine]
Sensation of anginal pain (heart; in vivo): mediator of the sensation of anginal pain
Hypotension (heart; intravenous injection at doses required for ischemic preconditioning): too much hypotension

Nc1ccc(CCNc2ncnc3c2ncn3[C@@H]2O[C@H](CO)[C@@H](O)[C@H]2O)cc1 [APNEA, N^6-(2-(4-aminophenyl)ethyl) adenosine]
Coronary flow after APNEA (isolated rabbit hearts; 1 minute, before 50±9, 3 hearts): 58 ± 6 mL/min
Heart rate after APNEA (isolated rabbit hearts; 1 minute, before 178±7, 3 hearts): 169±3 beats/min
Effect on heart rate or coronary flow (isolated rabbit hearts; non-ischemic hearts): no effect on heart rate or coronary flow

CCCn1c(=O)c2[nH]c(C3CCCC3)nc2n(CCC)c1=O [DPCPX, 8-cyclopentyl-1,3-dipropylxanthine]
Binding to R226 [1]: not to bind
Effect on bradycardia associated with activation of the A1 adenosine receptor (intact rabbit): abolish
Effect on fall in mean arterial pressure with I-APNEA or R-PIA (intact rabbit; I-APNEA 0.25 mg/kg or R-PIA 1 mg/kg, iv): attenuated
Infarct size ([2]; DPCPX 0.5 mg/kg IV + I-APNEA 0.25 mg/kg): 28±8.0%
Infarct size ([2]; DPCPX 0.5 mg/kg IV + PC): 7±1.8%
